Test results reported in patent US8604001B2, “Use of sulfated oligosaccharides as slimming cosmetic ingredients” (priority 2007, dated 2013).

Experiments:
[1] = test system: thighs of healthy volunteers; test: Slimming effect of hydro-alcohol gels: thigh circumference measured in centimeters over 8 weeks; details: for change of thigh circumference versus T0: hydro-alcohol gel applied twice a day, 25 volunteers
normal human adipocytes [2] = test: Stimulation of lipolysis (Non-Esterified Fatty Acids released) in suspensions of human adipocytes; type: cell-based; details: 1 mM; for NEFA: 2 hours at 37° C., control 96
Method: The lipolysis stimulation activity was evaluated in suspensions of human adipocytes isolated from a sample taken during an abdominal plasty performed on a person. The adipocytes suspension was incubated, for 2 hours at 37° C. with 3 or 5% of a solution of sulfated oligosaccharides prepared according to example 1 (16 hours of, hydrolysis time) in percentage of total weight of the culture, or with standard study solutions (1 mM theophylline or caffeine) or in the absence of solutions (control). Each assay was performed 6 times. At the end of the incubation period, the Non-Esterified Fatty Acids (NEFA) which were; present in the incubation mediums were measured with commercially available dosage kits (OXOID 46 551).

normal human adipocytes [3] = test: Inhibition of lipogenesis ([2-14C] acetate incorporation into lipids) in suspensions of human adipocytes; type: cell-based; details: 1 mM; for cpm (radioactivity of extracted lipids): 1 h preincubation, 4 h with [2-14C] acetate, control 472253
Method: The ex vivo inhibition of lipogenesis was evaluated in suspensions of human adipocytes which were isolated from a sampling taken during an abdominal plasty performed on a person. The adipocytes suspension was incubated for one hour at 37° C. with 3 or 5% of a solution of sulfated oligosaccharides prepared according to example 1 (hydrolysis time: 16 hours), or with a standard study solution (1 mM theophylline or caffeine), on in the absence of these solutions (control). Each assay was done in triplicate. A radioactive marker [2-^14C] acetate was then added to the various assays at a concentration of 2.5 μCi/mL. After 4 hours of incubation at 37° C., the lipids were extracted by a methanol/chloroform/water mixture and then dehydrated. The radioactivity, expressed in counts per minute (cpm), is then quantified through liquid scintigraphy (LKB 1210 Rackbeta). The statistical analysis was performed according to the Dunnett's multiple comparison test.

Row | SMILES | change of thigh circumference versus T0 ([1]; 14 days) [cm] | change of thigh circumference versus T0 ([1]; 28 days) [cm] | average decrease of the circumference of the thigh ([1]; 56 days, gel applied twice a day) [cm] | change of thigh circumference versus T0 ([1]; 56 days) [cm] | slimming effect (in words) ([1]; after 14 treatment days) | % Control (lipolysis, NEFA) (normal human adipocytes [2]) [%] | NEFA (normal human adipocytes [2]) [µM] | % Control (lipogenesis) (normal human adipocytes [3]) [%] | cpm (radioactivity of extracted lipids) (normal human adipocytes [3]) [cpm]
1 | Cn1c(=O)c2c(ncn2C)n(C)c1=O [Caffeine, caffeine] | 0 | −0.1 | 0.3 | −0.3 | no slimming effect | 547 | 525 | 4 | 20741
2 | Cn1c(=O)c2[nH]cnc2n(C)c1=O [Theophylline, theophylline] |  |  |  |  |  | 560 | 537 | 6 | 27225
